Source: patent US10653704B2, “Inhalable formulation” (Teva Branded Pharmaceutical Products R&D, Inc., priority 2014, dated 2020)

Assays:
Assay type in all cases: physicochemical
[1] = Amorphous content after conditioning in HFA134a
Method: Heating is performed at a temperature of 30-50° C., more preferably at a temperature of 35-45° C., and most preferably at a temperature of 38-42° C. The heating step, in the presence of the propellant, is a conditioning step for the API, in order to reduce the amorphous content of the API, without affecting the PSD. Amorphous content may be determined by solution microcalorimetry. Fluticasone propionate was conditioned in a drug-addition vessel. A 5% concentration of fluticasone propionate in HFA134a was treated at 40° C. for 48-72 h with a gentle rocking motion. HFA134a was vented and the remaining material was assessed in regard to its amorphous content.

[2] = Particle size distribution by Malvern, conditioning studies untreated versus treated
Method: Fluticasone propionate was conditioned in a drug-addition vessel. A 5% concentration of fluticasone propionate in HFA134a was treated at 40° C. for 48-72 h with a gentle rocking motion. HFA134a was vented and the remaining material was assessed in regard to its amorphous content.

[3] = Scanning electron microscope images pre- and post-conditioning; conditions: post-conditioning versus pre-conditioning, Experiments 1 and 2
Excerpt: FIGS. 1 and 2 show scanning electron microscope images of fluticasone propionate, pre-conditioning (the first image in each Figure) and post-conditioning (the second image in each Figure). FIGS. 1 and 2 are taken from Experiments 1 and 2 in Table 1 and show scanning electron microscopic images of fluticasone propionate, pre-conditioning (the first image in each Figure) and post-conditioning (the second image in each Figure).

[4] = Particle size distribution by Malvern, conditioning studies untreated versus treated; remark: listed apart in the source
[5] = Experiment 1, 5% in HFA134a, 40° C. for 48-72 h (with agitation)
[6] = Experiment 1, 5% in HFA134a, 40° C. for 72 h (with agitation)
[7] = Experiment 1, Control (untreated)
[8] = Experiment 2, 5% in HFA134a, 40° C. for 48-72 h (with agitation)
[9] = Experiment 2, Control (untreated)

Compound: CCC(=O)O[C@]1(C(=O)SCF)[C@H](C)C[C@H]2[C@@H]3C[C@H](F)C4=CC(=O)C=C[C@]4(C)[C@@]3(F)[C@@H](O)C[C@@]21C [fluticasone propionate]
- Amorphous content [1, 5]: 2.3%
- Amorphous content [1, 6]: 1.1%
- Amorphous content [1, 7]: 7.2%
- Amorphous content [1, 8]: 1.1%
- Amorphous content [1, 9]: 2.3%
- Particle size distribution by Malvern D10 [2, 5]: 0.6 μm
- Particle size distribution by Malvern D90 [2, 5]: 3.2 μm
- Particle size distribution by Malvern D10 [2, 6]: 0.6 μm
- Particle size distribution by Malvern D90 [2, 6]: 2.9 μm
- Particle size distribution by Malvern D10 [2, 8]: 0.7 μm
- Particle size distribution by Malvern D50 [2, 8]: 2.0 μm
- Crystallinity by SEM images [3]: increased crystallinity
- Particle size distribution by Malvern D50 [4, 5]: 1.5 μm
- Particle size distribution by Malvern D50 [4, 6]: 1.4 μm
- Particle size distribution by Malvern D10 [4, 7]: 0.6 μm
- Particle size distribution by Malvern D50 [4, 7]: 1.5 μm
- Particle size distribution by Malvern D90 [4, 7]: 3.2 μm
- Particle size distribution by Malvern D90 [4, 8]: 4.7 μm
- Particle size distribution by Malvern D10 [4, 9]: 0.6 μm
- Particle size distribution by Malvern D50 [4, 9]: 1.7 μm
- Particle size distribution by Malvern D90 [4, 9]: 5.0 μm
